The values that follow come from ChEMBL document CHEMBL5370584, “Reprogramming Energy Metabolism with Synthesized PDK Inhibitors Based on Dichloroacetate Derivatives and Targeted Delivery Systems for Enhanced Cancer Therapy” (J Med Chem, 2023).

In data set [1] the test system is 4T1. Put plainly: Inhibition of glycolysis in mouse 4T1 cell lysates assessed as reduction in extracellular acidification rate at 2 to 6 uM measured after 6 hrs. It counts as functional, cell-based. The following applies: dose 2-6 µM.
In data set [2] the test system is 4T1. Put plainly: Induction of apoptosis in mouse 4T1 cells assessed as activation of caspase 3 at 2 uM incubated for 12 to 18 hrs. It is filed as functional, cell-based. The following applies: time 12-18 hrs.
In data set [3] the test system is 4T1. In words: Recovery in mitochondrial function in mouse 4T1 cells assessed as increase in OCR/ECAR ratio. It is filed as functional, cell-based. The following applies: dose 2-6 µM.
The test system of data set [4] is 4T1. In words: Induction of apoptosis in mouse 4T1 cells assessed as activation of caspase 9 at 2 uM incubated for 12 to 18 hrs. It counts as functional, cell-based. The following applies: time 12-18 hrs.
In data set [5] the target is [Pyruvate dehydrogenase (acetyl-transferring)] kinase isozyme 1, mitochondrial (Mus musculus) (UniProt Q8BFP9). Put plainly: Inhibition of PDK1 transcription in mouse 4T1 cells at 4 uM incubated for 24 hrs by qPCR analysis. It counts as cell-based. A general note: Quantitative PCR measures a nucleic acid by following its amplification.
Sequence of [Pyruvate dehydrogenase (acetyl-transferring)] kinase isozyme 1, mitochondrial (Mus musculus) (Q8BFP9 whole entry): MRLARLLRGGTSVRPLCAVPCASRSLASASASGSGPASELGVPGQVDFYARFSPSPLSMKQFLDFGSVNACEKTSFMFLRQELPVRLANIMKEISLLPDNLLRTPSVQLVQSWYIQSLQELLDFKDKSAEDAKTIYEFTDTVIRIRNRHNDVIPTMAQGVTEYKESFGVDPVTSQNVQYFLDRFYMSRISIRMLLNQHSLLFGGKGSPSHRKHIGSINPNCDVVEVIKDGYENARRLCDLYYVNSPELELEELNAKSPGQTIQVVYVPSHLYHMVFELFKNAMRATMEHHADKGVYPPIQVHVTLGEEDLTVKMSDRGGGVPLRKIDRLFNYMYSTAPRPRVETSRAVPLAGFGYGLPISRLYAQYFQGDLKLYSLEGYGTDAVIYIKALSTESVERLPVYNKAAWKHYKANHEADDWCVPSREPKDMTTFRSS
A short description of data set [6]: Toxicity in BALB/c mouse assessed as effect on kidney at 0.15 to 1.5 mg/kg measured upto 16 days. It is filed as organism-based. Particulars: in vivo, 384 h, dose 0.15-1.5 mg/kg, time < 16 day.
Data set [7] concerns 4T1. In words: Induction of apoptosis in mouse 4T1 cells assessed as activation of cytochrome C release from mitochondria to cytosol at 1 to 4 uM incubated for 12 hrs. It is filed as functional, cell-based. The following applies: dose 1-4 µM.
Data set [8] deals with 4T1. Put plainly: Inhibition of PDK4 expression in mouse 4T1 cells at 4 uM incubated for 24 hrs by Western blot analysis. It is filed as functional, cell-based. (In western blotting, separated proteins are transferred to a membrane and probed.)
Data set [9] is described as follows: Toxicity in BALB/c mouse assessed as effect on ALP level at 0.15 to 1.5 mg/kg measured upto 16 days. It is filed as organism-based. Particulars: in vivo, 384 h, dose 0.15-1.5 mg/kg, time < 16 day.
Data set [10] can be described thus: Toxicity in BALB/c mouse assessed as effect on CREA level at 0.15 to 1.5 mg/kg measured upto 16 days. It is filed as organism-based. Particulars: in vivo, 384 h, dose 0.15-1.5 mg/kg, time < 16 day.
Data set [11] deals with 4T1. Put plainly: Induction of apoptosis in mouse 4T1 cells assessed as increase in GSH content at 1 to 2 uM measured after 12 to 24 hrs. It is filed as functional, cell-based. The following applies: dose 1-2 µM, time 12-24 hrs.
The nature of data set [12]: Toxicity in BALB/c mouse assessed as effect on spleen at 0.15 to 1.5 mg/kg measured upto 16 days. Particulars: in vivo, 384 h, dose 0.15-1.5 mg/kg, time < 16 day. It counts as organism-based.
In data set [13] the test system is 4T1. In words: Inhibition of glycolysis in mouse 4T1 cell lysates assessed as reduction in LDH activity at 1 to 2 uM incubated for 12 hrs. Particulars: dose 1-2 µM. It is filed as functional, cell-based.
Another data set concerns MCF7. In words: Antiproliferative activity against human MCF7 cells assessed as inhibition of cell growth incubated for 24 hrs by MTT assay. The following applies: MCF7, 24 h. It counts as functional, cell-based. On the technique in general: Tetrazolium assays rely on reduction of a dye to a coloured formazan, in cell work by metabolically active cells.
Data set [14] is described as follows: Selectivity ratio of IC50 mouse 4T1 cells to IC50 for African green monkey COS7 cells.
The nature of data set [15]: Toxicity in BALB/c mouse assessed as effect on liver at 0.15 to 1.5 mg/kg measured upto 16 days. It counts as organism-based. Particulars: in vivo, 384 h, dose 0.15-1.5 mg/kg, time < 16 day.
The next data set concerns COS-7. In words: Effect on PHDC expression in African monkey COS7 cells at high concentration measured after 6 hrs. The following applies: Chlorocebus aethiops. It is filed as functional, cell-based.

Activity calls are given as the source filed them. The calls are words filed in the database; no cut-off is given here.

Regarding `O=C(CCCCCNC(=O)C(Cl)Cl)Nc1ccc([As]2SCCCS2)cc1`, the inhibition entry (in the data set on 4T1 [1]; in data set [5]; in the data set on 4T1 [8]; in the data set on 4T1 [13]) was “Active” in each case. In addition, the result with 4T1 [2], with 4T1 [4], in the data set with 4T1 [7] and with 4T1 [11] was Active. Also, the Activity result in the data set with 4T1 [3] was “Dose-Dependent Effect”; in data set [6], “Non-Toxic”; in data set [9], “Non-Toxic”; in data set [10], “Non-Toxic”; in [12], “Non-Toxic”; in data set [15], “Non-Toxic”. Further, the IC50 (in general, the concentration at which inhibition is half-maximal) in the data set with MCF7 was found to be 2500 nM. The “Ratio IC50” value in data set [14] is on record as 6. For the same compound, the outcome in the data set with COS-7 was inactive.
